Laboratory results from ChEMBL document CHEMBL2057062, “Synthesis and biological evaluation of 4-phenylquinazoline-2-carboxamides designed as a novel class of potent ligands of the translocator protein” (J Med Chem, 2012).
Active and inactive are the calls of the source. The rule behind the calls is not given here.

Columns and labels:
[1] = species: Rattus norvegicus; assay: Displacement of [3H]flumazenil from central benzodiazepine receptor in rat cerebral cortex membranes at 10 uM after 90 mins by competitive binding assay; format: cell membranes; conditions: Membrane
[2] = target: Translocator protein (Rattus norvegicus, UniProt P16257); assay: Displacement of [3H]PK11195 from TSPO in rat kidney mitochondrial membranes by competitive binding assay; format: cell membranes, Membrane
[3] = target: Translocator protein (Rattus norvegicus) (UniProt P16257); assay: Displacement of [3H]PK11195 from TSPO in rat kidney mitochondrial membranes at 1 uM by competitive binding assay; format: cell membranes; conditions: Membrane
[4] = test system: C6; assay: Increase in pregnenolone production in rat C6 glioma cells at 40 uM after 2 hrs by ELISA; format: functional, cell-based

| SMILES | inhibition [1] [%] | Ki [2] [nM] | inhibition [3] [%] | Activity [4] |
| --- | --- | --- | --- | --- |
| O=C(c1nc(-c2ccccc2Cl)c2ccccc2n1)N1CCCCC1 | 0 | 46 | – | – |
| O=C(c1nc(-c2ccccc2Cl)c2cc(Cl)ccc2n1)N1CCCC1 | 0 | – | 73 | – |
| CC[C@@H](C)N(C)C(=O)c1nc(-c2ccc(Cl)cc2)c2ccccc2n1 | 0 | 1.57 | – | – |
| O=C(c1nc(-c2ccccc2)c2cc(Cl)ccc2n1)N1CCCCC1 | 0 | – | 46 | – |
| CC(C)N(C)C(=O)c1nc(-c2ccccc2)c2ccccc2n1 | 0 | 70.3 | – | – |
| CCCCCCN(CCCCCC)C(=O)c1nc(-c2ccc(Cl)cc2)c2ccccc2n1 | 0 | 3.42 | – | Active |
| O=C(c1nc(-c2ccccc2Cl)c2ccccc2n1)N1CCCC1 | 0 | – | 70 | – |
| CCCN(CCC)C(=O)c1nc(-c2ccccc2)c2ccccc2n1 | 0 | 36.8 | – | – |
| O=C(c1nc(-c2ccccc2Cl)c2cc(Cl)ccc2n1)N1CCCCC1 | 0 | 273 | – | – |
| CCC(C)NC(=O)c1nc(-c2ccc(Cl)cc2)c2ccccc2n1 (centres undefined) | 0 | – | 37 | – |
| CC(C)CN(C)C(=O)c1nc(-c2ccccc2Cl)c2ccccc2n1 | 0 | 6.98 | – | – |
| CC(C)N(C)C(=O)c1nc(-c2ccccc2Cl)c2ccccc2n1 | 0 | 12.5 | – | – |
| O=C(c1nc(-c2ccc(Cl)cc2)c2cc(Cl)ccc2n1)N1CCCCCC1 | 0 | – | 77 | – |
| CC[C@H](C)N(C)C(=O)c1nc(-c2ccc(Cl)cc2)c2ccccc2n1 | 0 | 2.51 | – | – |
| CC[C@H](C)N(C)C(=O)c1nc(-c2ccccc2)c2ccccc2n1 | 0 | 6.09 | – | – |
| CN1C(=O)CN=C(c2ccc(Cl)cc2)c2cc(Cl)ccc21 | 0 | – | – | Active |

| SMILES | inhibition [1] [%] | Ki [2] [nM] | inhibition [3] [%] | Activity [4] |
| --- | --- | --- | --- | --- |
| CCCCN(C)C(=O)c1nc(-c2ccccc2)c2ccccc2n1 | 0 | 46 | – | Active |
| CC(C)N(C)C(=O)c1nc(-c2ccc(Cl)cc2)c2cc(Cl)ccc2n1 | 0 | – | 39 | – |
| CCC(C)N(C)C(=O)c1nc(-c2ccc(Cl)cc2)c2ccccc2n1 (centres undefined) | 0 | 2.67 | – | Active |
| O=C(c1nc(-c2ccccc2Cl)c2ccccc2n1)N1CCCCCC1 | 0 | 8.77 | – | – |
| CC(C)CN(C)C(=O)c1nc(-c2ccccc2)c2ccccc2n1 | 0 | 66.5 | – | – |
| CN1C(=O)CN=C(c2ccccc2F)c2cc([N+](=O)[O-])ccc21 | 0 | – | – | – |
| CCC(C)N(C)C(=O)c1nc(-c2ccccc2)c2cc(Cl)ccc2n1 (centres undefined) | 0 | – | 22 | – |
| CC[C@H](C)N(C)C(=O)c1nc(-c2ccccc2Cl)c2ccccc2n1 | 0 | 2.2 | – | – |
| CCCCCCN(CCCCCC)C(=O)c1nc(-c2ccc(Cl)cc2)c2cc(Cl)ccc2n1 | 0 | 4.31 | – | – |
| CCCCCCN(CCCCCC)C(=O)c1nc(-c2ccccc2Cl)c2cc(Cl)ccc2n1 | 0 | 30.4 | – | – |
| CC(C)N(C)C(=O)c1nc(-c2ccc(Cl)cc2)c2ccccc2n1 | 0 | 50.4 | – | – |
| CCC(C)NC(=O)c1nc(-c2ccccc2Cl)c2cc(Cl)ccc2n1 (centres undefined) | 0 | – | 0 | – |
| CC[C@@H](C)N(C)C(=O)c1nc(-c2ccccc2)c2ccccc2n1 | 0 | 6.41 | – | – |
| CC(C)CN(C)C(=O)c1nc(-c2ccc(Cl)cc2)c2cc(Cl)ccc2n1 | 0 | 60.7 | – | – |
| O=C(c1nc(-c2ccccc2)c2cc(Cl)ccc2n1)N1CCCC1 | 0 | – | 43 | – |
